According to publication PMC4764977, “AZD8797 is an allosteric non-competitive modulator of the human CX3CR1 receptor” (Biochemical Journal, 2016):

Tests used:
[1] = biological target: T1, CX3CR1 (Homo sapiens, UniProt P49238); test: 125I-CX3CL1 kinetic radioligand binding, CHO-hCX3CR1 membranes; design: host or cells: CHO-K1
T1 sequence (P49238 1-355): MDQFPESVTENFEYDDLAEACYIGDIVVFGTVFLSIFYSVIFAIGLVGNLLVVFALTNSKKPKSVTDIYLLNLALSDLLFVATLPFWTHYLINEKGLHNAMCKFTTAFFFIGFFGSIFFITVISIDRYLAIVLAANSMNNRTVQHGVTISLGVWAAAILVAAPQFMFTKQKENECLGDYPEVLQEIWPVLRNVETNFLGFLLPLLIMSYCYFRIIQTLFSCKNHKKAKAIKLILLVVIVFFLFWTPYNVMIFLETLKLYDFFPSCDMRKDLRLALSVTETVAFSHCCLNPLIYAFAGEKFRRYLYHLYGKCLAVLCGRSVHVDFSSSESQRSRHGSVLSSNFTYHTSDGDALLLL
Procedure: Incubation times ranged from 2.5 min to 4 h. For the association experiments, the radioligand data were fitted to the following monophasic exponential association equation and the association rate (kon) was calculated using the added amounts of radioligand (L) and dissociation rate (koff) as constants. koff was measured in separate dissociation experiments. The dissociation data were fitted to the monophasic exponential decay equation: where Y0 is the binding (cpm) at time zero, X is the time and NS is the (non-specific) binding at infinite times. […] Multiple compound dissociation data were fitted to the biphasic exponential decay equation: […]

[2] = biological target: T1, CX3CR1; test: Equilibrium saturation binding, CHO-hCX3CR1 membranes; design: host or cells: CHO-K1; details: GTPγS added (100 μM)
Procedure: Cells were washed in PBS and lysed with an Ultra-Turrax Homogenizer in 50 mM Tris/HCl (pH 7.4) and 1 mM EDTA with Complete™ protease inhibitor (Roche). […] Protein concentration was determined using the BCA method (Thermo Fisher Scientific). […] The filter plate was washed in ice-cold 25 mM HEPES (pH 7.4), 5 mM MgCl2, 1 mM CaCl2 and 500 mM NaCl and dried at 50°C for 1 h. Scintillation cocktail, Optiphase Supermix (PerkinElmer) was added to each well and the radioactivity was measured using a MicroBeta Trilux reader (PerkinElmer). […] The DMSO concentration was held constant at 1%. where Kd is the radioligand dissociation constant. Saturation binding isotherms were analysed by non-linear regression and globally fitted to a hyperbolic one-site binding model taking into account both NSB and total binding to calculate the total receptor number (Bmax) and radioligand dissociation constant (Kd): […] NSB=NS·X+Background, where NS is the concentration-dependent NSB. To visualize the manner of binding of CX3CL1 and AZD8797, a diagnostic affinity ratio plot designed to compare strictly competitive behaviour with allosteric interactions was used. […] For single site competitive interactions, the resulting linear plot has the slope of 1.0. For allosteric but competitive interactions, the slope will start at 1.0 but progressively deviate from unity, eventually reaching a limit governed by the allosteric ternary complex model co-operativity factor α [21, 22].

[3] = biological target: T2, CX3CR1 (Homo sapiens, UniProt P49238); test: 125I-CX3CL1 saturation radioligand binding (CHO-hCX3CR1 membranes)
T2 chain: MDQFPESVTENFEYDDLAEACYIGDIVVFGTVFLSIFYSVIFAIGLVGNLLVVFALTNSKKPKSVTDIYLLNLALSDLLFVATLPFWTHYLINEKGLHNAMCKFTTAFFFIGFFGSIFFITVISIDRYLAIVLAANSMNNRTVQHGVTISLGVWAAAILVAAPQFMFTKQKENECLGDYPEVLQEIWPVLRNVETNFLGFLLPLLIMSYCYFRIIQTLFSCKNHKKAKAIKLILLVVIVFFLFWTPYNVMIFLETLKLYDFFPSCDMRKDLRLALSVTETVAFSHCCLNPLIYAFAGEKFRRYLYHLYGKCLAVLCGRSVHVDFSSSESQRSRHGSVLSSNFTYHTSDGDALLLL

[4] = biological target: T2, CX3CR1; test: 125I-CX3CL1 competition radioligand binding (CHO-hCX3CR1 membranes)
[5] = co-adding 100 μM GTPγS + 100 nM CX3CL1, two-phase model, n=2

Molecule: Nc1nc2c(ncn2[C@@H]2O[C@H](COP(=O)(O)OP(=O)(O)OP(O)(O)=S)[C@@H](O)[C@H]2O)c(=O)[nH]1 [GTPγS, guanosine 5′-[γ-thio]triphosphate, reference compound]
- k1off of 125I-CX3CL1 dissociation [1, 5]: 0.55 min⁻¹
- k2off of 125I-CX3CL1 dissociation [1, 5]: 0.0084 min⁻¹
- Effect on 125I-CX3CL1 association rate (kon) ([1]; results not shown): no effect
- Effect on maximal binding of 125I-CX3CL1 in association experiments ([1]; results not shown): no effect
- Effect on [3H]AZD8797 and 125I-CX3CL1 equilibrium saturation binding [2]: no effect

B1: CX3CL1 (fractalkine) chemokine domain (protein)
chain: LAGQHHGVTKCNITCSKMTSKIPVALLIHYQQNQASCGKRAIILETRQHRLFCADPKEQWVKDAMQHLDRQAAALTRNGGTF
modifications: 125I-labelled CX3CL1
- Kd [3]: 0.19 nM

B2: CX3CL1 (fractalkine) chemokine domain (protein)
chain: LAGQHHGVTKCNITCSKMTSKIPVALLIHYQQNQASCGKRAIILETRQHRLFCADPKEQWVKDAMQHLDRQAAALTRNGGTF
- Ki [4]: 0.29 nM
